Data as given in patent US8658675B2, “Pyridin-4-yl derivatives” (Actelion Pharmaceuticals Ltd., priority 2009, dated 2014).

Legend:
[1] = test system: rat trachea rings; assay: Measurement of isometric force development: rat trachea ring constriction; set-up: species or system Female Wistar rats; details: for potential to constrict rat trachea rings (comparison in words): compared to closest prior art analogues of WO 2008/029371 or to Example 2; for % trachea constriction at 1 μM: compound at 1 μM, in % of the constriction induced by 50 mM KCl
Procedure: Animals were obtained from RCC Ltd (Füllinsdorf, Switzerland). Female Wistar rats were euthanized by exposure to CO2. The tracheae were excised and rings from the lower segments were prepared. Rings of trachea were suspended in tissue baths (10 mL) containing Krebs-Henseleit buffer of the following composition (mM): NaCl 115; KCl 4.7; MgSO4 1.2; KH2PO4 1.5; CaCl2 2.5; NaHCO3 25; glucose 10. Bathing solution was maintained at 37° C. and aerated with 95% O2/5% CO2 (pH 7.4). A resting force of 2 g (20 mN) was applied to the ring preparation, and changes in force generation were measured using an isometric force recorder (EMKA Technologies Inc, Paris, France). Viability of rings was assessed by exposure to a depolarizing concentration of KCl (50 mM). Contraction of trachea was expressed as a percentage of the response to KCl.
All compounds were prepared as stock solutions of 0.3 mM in pure DMSO. Compounds were added to the bath (10 mL) in a volume of 33 μL to give a final bath concentration of DMSO of 0.33%.
Contraction of trachea was measured for 15 out of 30 exemplified compounds.

[2] = test system: rat trachea rings; assay: as above; set-up: species or system Female Wistar rats; details: compound at 10 μM; in % of the constriction induced by 50 mM KCl
[3] = test system: circulating lymphocytes; assay: Assessment of in vivo efficacy: circulating lymphocytes after oral administration; set-up: species or system normotensive male Wistar rats; details: Rattus norvegicus, Lymphocyte; 6 h after oral administration of 10 mg/kg, male Wistar rats, compared to vehicle group; read-out: Lymphocyte counts
Procedure: The efficacy of the compounds of Formula (I) is assessed by measuring the circulating lymphocytes after oral administration of 3 to 30 mg/kg of a compound of Formula (I) to normotensive male Wistar rats. The animals are housed in climate-controlled conditions with a 12 h-light/dark cycle, and have free access to normal rat chow and drinking water. Blood is collected before and 3, 6 and 24 h after drug administration. Full blood is subjected to hematology using Advia Hematology system (Bayer Diagnostics, Zurich, Switzerland).
All data are presented as mean±SEM. Statistical analyses are performed by analysis of variance (ANOVA) using Statistica (StatSoft) and the Student-Newman-Keuls procedure for multiple comparisons. The null hypothesis is rejected when p<0.05.
Lymphocyte counts 6 h after oral administration have been measured for 23 out of 30 exemplified compounds and are in the range of −42% to −80% with an average of −63%.

[4] = molecular target: human S1P1 receptor (Homo sapiens, UniProt P21453); assay: GTPγS assay to determine EC50 values; type: biochemical; details: membranes of CHO cells expressing recombinant human S1P1 receptor; 35S-GTPγS binding
Chain of human S1P1 receptor (P21453 whole entry): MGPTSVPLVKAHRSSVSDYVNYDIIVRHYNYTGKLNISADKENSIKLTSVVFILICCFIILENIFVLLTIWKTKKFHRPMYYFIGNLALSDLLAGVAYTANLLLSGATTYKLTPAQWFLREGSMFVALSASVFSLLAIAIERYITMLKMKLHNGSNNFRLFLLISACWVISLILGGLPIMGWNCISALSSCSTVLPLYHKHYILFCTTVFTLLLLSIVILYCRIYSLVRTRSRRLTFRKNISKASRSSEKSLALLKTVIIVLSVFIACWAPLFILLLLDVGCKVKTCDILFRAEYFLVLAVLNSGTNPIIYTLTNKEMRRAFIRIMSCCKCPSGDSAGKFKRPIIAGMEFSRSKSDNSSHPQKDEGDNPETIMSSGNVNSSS
Procedure: GTPγS binding assays are performed in 96 well microtiter plates (Nunc, 442587) in a final volume of 200 μl, using membrane preparations of CHO cells expressing recombinant human S1P1 receptor. Assay conditions are 20 mM Hepes (Fluka, 54461), 100 mM NaCl (Fluka, 71378), 5 mM MgCl2 (Fluka, 63064), 0.1% BSA (Calbiochem, 126609), 1 μM GDP (Sigma, G-7127), 2.5% DMSO (Fluka, 41644), […] ^35S-GTPγS (Amersham Biosciences, SJ1320). The pH is 7.4. Test compounds are dissolved and diluted in 100% DMSO and pre-incubated at room temperature for 30 min in 150 μl of the above assay buffer, in the absence of ^35S-GTPγS. After addition of 50 μl of ^35S-GTPγS, the assay is incubated for 1 h at rt. The assay is terminated by transfer of the reaction mixture to a Multiscreen plate (Millipore, MAHFC1H60) using a cell harvester from Packard Biosciences, and the plates are washed with ice-cold 10 mM Na2HPO4/NaH2PO4 (70%/30%), dried, sealed at the bottom and, after addition of 25 μl MicroScint20 (Packard Biosciences, order#6013621), sealed on the top. Membrane-bound ^35S-GTPγS is measured with a TopCount from Packard Biosciences.
EC50 is the concentration of agonist inducing 50% of the maximal specific ^35S-GTPγS binding. Specific binding is determined by subtracting non-specific binding from maximal binding. Maximal binding is the amount of cpm bound to the Multiscreen plate in the presence of 10 μM of S1P. Non-specific binding is the amount of binding in the absence of an agonist in the assay.
Agonistic activities (EC50 values) of all exemplified compounds have been measured.

Row | % trachea constriction at 1 μM [1] | % trachea constriction at 10 μM [2] | EC50 [4] | Structure (SMILES) | potential to constrict rat trachea rings (comparison in words) [1] | change in vivo at 10 mg/kg [3]
1 | <5% | <5% | 0.9 nM | CCc1cc(-c2noc(-c3cc(OC)nc(C4CCCC4)c3)n2)cc(C)c1OC[C@@H](O)CO [Example 2, (S)-3-{4-[5-(2-Cyclopentyl-6-methoxy-pyridin-4-yl)-[1,2,4]oxadiazol-3-yl]-2-ethyl-6-methyl-phenoxy}-propane-1,2-diol] | markedly reduced potential to constrict rat trachea rings | -70%
2 | <5% | 24% | 2.7 nM | CCc1cc(-c2noc(-c3cc(OC)nc(C(CC)CC)c3)n2)cc(C)c1OC[C@@H](O)CO [Example 1, (S)-3-(2-Ethyl-4-{5-[2-(1-ethyl-propyl)-6-methoxy-pyridin-4-yl]-[1,2,4]oxadiazol-3-yl}-6-methyl-phenoxy)-propane-1,2-diol] | significantly reduced potential to constrict rat trachea rings | -63%
